Consider three compounds from PMC9036676 (RSC Advances, 2021).

One assay deals with PD-1/PD-L1 interaction. The following applies: read-out: IC50, inhibitory activity against the PD-1/PD-L1 interaction; cited from earlier work.
For the next assay, the target named is PD-1/PD-L1 (Homo sapiens, UniProt Q9NZQ7). The assay can be described thus: PD-1/PD-L1 TR-FRET assay. In kind it is binding. Conditions: IC50 on PD-1/PD-L1, TR-FRET assay. Background: Time-resolved FRET reads energy transfer from a long-lived donor to a nearby acceptor.
Sequence of PD-1/PD-L1 (Q9NZQ7 19-238 limits assumed): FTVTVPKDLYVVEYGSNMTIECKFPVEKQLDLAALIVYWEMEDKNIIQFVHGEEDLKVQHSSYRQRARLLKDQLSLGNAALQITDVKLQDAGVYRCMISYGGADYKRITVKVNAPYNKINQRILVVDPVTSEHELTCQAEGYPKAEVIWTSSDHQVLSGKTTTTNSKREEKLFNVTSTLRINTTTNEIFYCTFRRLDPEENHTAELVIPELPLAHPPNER

Structures are written as SMILES. Positions of bridges follow the written chain, without caps; N, C: chain ends. Non-standard residues stand in square brackets, D forms with d. Residues, ends and D or L forms follow the SMILES beside them. Trp(1-CH2COOH) = N[C@@H](Cc1cn(CC(=O)O)c2ccccc12)C(=O)O; Oic = O=C(O)[C@@H]1C[C@@H]2CCCC[C@@H]2N1; Hyp = O=C(O)[C@@H]1C[C@@H](O)CN1; NMeNle = CCCC[C@H](NC)C(=O)O; Pip = O=C(O)[C@@H]1CCCCN1; NMeA = CN[C@@H](C)C(=O)O; Dab = NCC[C@H](N)C(=O)O; Dap = NC[C@H](N)C(=O)O

For the compound `CCCC[C@H]1C(=O)N(C)[C@@H](CCCC)C(=O)N[C@@H](CCCNC(=N)N)C(=O)N[C@H](C(=O)NCC(N)=O)CSCC(=O)N[C@@H](Cc2ccccc2)C(=O)N(C)[C@@H](C)C(=O)N[C@@H](CC(N)=O)C(=O)N2CCC[C@H]2C(=O)N[C@@H](Cc2c[nH]cn2)C(=O)N[C@@H](CC(C)C)C(=O)N[C@@H](CO)C(=O)N[C@@H](Cc2c[nH]c3ccccc23)C(=O)N[C@@H](CO)C(=O)N[C@@H](Cc2c[nH]c3ccccc23)C(=O)N1C` [Compound 1] ({CH2CO}-F[NMeA]NPHLSWSW[NMeNle][NMeNle]RCG-NH2; thioether N-14), the IC50 with PD-1/PD-L1 interaction was 9 nM.
As for `CCCC[C@H]1C(=O)N(C)[C@@H](CCCC)C(=O)N[C@@H](CC(C)C)C(=O)N[C@H](C(=O)NCC(N)=O)CSCC(=O)N[C@@H](Cc2ccc(O)cc2)C(=O)N2CCCC[C@H]2C(=O)N[C@@H](CC(N)=O)C(=O)N2[C@@H](C[C@@H]3CCCC[C@@H]32)C(=O)N[C@@H](CN)C(=O)N[C@@H](CC(C)C)C(=O)N2C[C@H](O)C[C@H]2C(=O)N[C@@H](Cc2c[nH]c3ccccc23)C(=O)N[C@@H](CCN)C(=O)N[C@@H](Cc2cn(CC(=O)O)c3ccccc23)C(=O)N1C` [Compound 5] ({CH2CO}-Y[Pip]N[Oic][Dap]L[Hyp]W[Dab][Trp(1-CH2COOH)][NMeNle][NMeNle]LCG-NH2; thioether N-14), the IC50 against PD-1/PD-L1 stood at 14.6 nM.
Consider `CCCC[C@H]1C(=O)N(C)[C@@H](CCCC)C(=O)N[C@@H](CC(C)C)C(=O)N[C@H](C(=O)NCC(N)=O)CSCC(=O)N[C@@H](Cc2ccccc2)C(=O)N(C)[C@@H](C)C(=O)N[C@@H](CC(N)=O)C(=O)N2CCC[C@H]2C(=O)N[C@@H](Cc2c[nH]cn2)C(=O)N[C@@H](CC(C)C)C(=O)N2C[C@H](O)C[C@H]2C(=O)N[C@@H](Cc2c[nH]c3ccccc23)C(=O)N[C@@H](CO)C(=O)N[C@@H](Cc2c[nH]c3ccccc23)C(=O)N1C` [Compound 2] ({CH2CO}-F[NMeA]NPHL[Hyp]WSW[NMeNle][NMeNle]LCG-NH2; thioether N-14), for which the IC50 on PD-1/PD-L1 was determined as 40.1 nM.
